The results in this text go back to patent US7739055B2, “Methods and systems for generating and evaluating peptides” (priority 2005, dated 2010).

Values after ≈ are worked out from the molar mass of the structure shown. Like-named read-outs stand apart in the source and are kept apart here. Where a SMILES comes first, the peptide text is derived from it.

Where [1] appears, read: first concentration that prohibits growth by OD at 24 hours, Table 1.

On to `CC[C@H](C)[C@H](NC(=O)[C@H](CCCCN)NC(=O)[C@H](Cc1ccccc1)NC(=O)[C@@H](NC(=O)[C@H](C)NC(=O)[C@@H]1CCCN1)C(C)C)C(=O)N[C@@H](C)C(=O)N[C@@H](CO)C(=O)N[C@@H](CCCCN)C(=O)N[C@H](C(=O)N[C@H](C(=O)N1CCC[C@H]1C(=O)N[C@@H](CO)C(=O)N[C@H](C(=O)N[C@@H](Cc1ccc(O)cc1)C(=O)N[C@@H](CS)C(=O)N[C@@H](CCCCN)C(=O)N[C@H](C(=O)N[C@@H](CO)C(=O)N[C@@H](CCCNC(=N)N)C(=O)O)C(C)C)C(C)C)C(C)C)C(C)C` [Peptide 29] (H-PAVFKIASKVVPSVYCKVSR-OH; N-terminus and C-terminus assumed), for which the “MIC E. coli” value with Escherichia coli (24 h) was 128 µg/mL (≈ 58.8 µM). Moreover, the “MIC B. cereus” value in the test with B. cereus (setting [1]) was “+ (MIC greater than 256 ug/mL)”.

As for `CC(C)C[C@H](NC(=O)CNC(=O)[C@H](Cc1ccccc1)NC(=O)[C@H](CC(C)C)NC(=O)[C@H](C)NC(=O)CN)C(=O)N[C@@H](C)C(=O)N[C@@H](CO)C(=O)N[C@@H](CCCCN)C(=O)N[C@H](C(=O)N[C@@H](Cc1ccccc1)C(=O)N1CCC[C@H]1C(=O)N[C@@H](C)C(=O)N[C@H](C(=O)N[C@@H](Cc1ccccc1)C(=O)NCC(=O)N[C@@H](C)C(=O)N[C@@H](Cc1ccccc1)C(=O)N[C@@H](CCCCN)C(=O)N[C@@H](CCCCN)C(=O)O)C(C)C)C(C)C` [Peptide 30] (H-GALFGLASKVFPAVFGAFKK-OH; N-terminus and C-terminus assumed), the “MIC E. coli” value in the test with Escherichia coli (24 h) is 256 µg/mL (≈ 125 µM). Besides, in the test with B. cereus (setting [1]), the “MIC B. cereus” value is on record as “+ (MIC greater than 256 ug/mL)”.

Consider `CC[C@H](C)[C@H](NC(=O)[C@H](CCSC)NC(=O)[C@H](CO)NC(=O)[C@@H](NC(=O)[C@H](CC(C)C)NC(=O)[C@H](CO)NC(=O)[C@@H]1CCCN1C(=O)[C@@H](NC(=O)[C@@H](NC(=O)[C@H](CCCCN)NC(=O)[C@H](CO)NC(=O)[C@H](C)NC(=O)[C@@H](NC(=O)[C@H](CCCNC(=N)N)NC(=O)CNC(=O)[C@@H](NC(=O)[C@H](Cc1ccccc1)NC(=O)[C@H](CO)NC(=O)[C@@H](N)CC(C)C)C(C)C)C(C)C)C(C)C)C(C)C)[C@@H](C)CC)C(=O)N[C@@H](CCCCN)C(=O)O` [Peptide 55] (H-LSFVGRVASKVVPSLISMIK-OH; N-terminus and C-terminus assumed), for which the “MIC E. coli” value against Escherichia coli (24 h) is 256 µg/mL (≈ 120 µM). For the same molecule, the “MIC B. cereus” value in the test with B. cereus (setting [1]) is listed as “+ (MIC greater than 256 ug/mL)”.

On to `CC(C)C[C@H](NC(=O)[C@H](CCCCN)NC(=O)[C@H](Cc1ccccc1)NC(=O)[C@@H](NC(=O)[C@H](C)NC(=O)[C@@H]1CCCN1C(=O)[C@@H](N)CC(C)C)C(C)C)C(=O)N[C@@H](C)C(=O)N[C@@H](CO)C(=O)N[C@@H](CCCCN)C(=O)N[C@H](C(=O)N[C@@H](Cc1ccccc1)C(=O)N1CCC[C@H]1C(=O)N[C@@H](C)C(=O)N[C@H](C(=O)N[C@@H](Cc1ccc(O)cc1)C(=O)N[C@@H](CS)C(=O)N[C@@H](CCCCN)C(=O)N[C@@H](C)C(=O)N[C@@H](CO)C(=O)O)C(C)C)C(C)C` [Peptide 62] (H-LPAVFKLASKVFPAVYCKAS-OH; N-terminus and C-terminus assumed), for which the “MIC E. coli” value against Escherichia coli (24 h) amounted to 128 µg/mL (≈ 59.8 µM). Moreover, the “MIC B. cereus” value in the test with B. cereus (setting [1]) was “+ (MIC greater than 256 ug/mL)”.

In the case of `CC[C@H](C)[C@H](NC(=O)[C@@H](NC(=O)[C@H](CCCCN)NC(=O)[C@H](C)NC(=O)[C@H](CC(C)C)NC(=O)[C@H](CCCCN)NC(=O)[C@H](CCCCN)NC(=O)CN)[C@@H](C)O)C(=O)N[C@@H](C)C(=O)N[C@@H](CCCCN)C(=O)N[C@@H](CCC(=O)O)C(=O)N[C@H](C(=O)N[C@@H](C)C(=O)N[C@@H](CCCCN)C(=O)N[C@@H](CCC(N)=O)C(=O)NCC(=O)N[C@@H](C)C(=O)N[C@@H](CCCCN)C(=O)N[C@@H](Cc1ccccc1)C(=O)N[C@@H](C)C(=O)O)C(C)C` [Peptide 77] (H-GKKLAKTIAKEVAKQGAKFA-OH), the “MIC E. coli” value against Escherichia coli (setting [1]) was found to be 64 µg/mL (≈ 30.7 µM). Also, the “MIC B. cereus” value in the test on B. cereus is reported as “+ (key: +: MIC greater than 256 ug/mL; ++: MIC greater than 128 ug/mL, not sufficiently soluble to test as 256 ug/mL)”.
